Our source for the EC50 values is patent publication US11396503B2, “Sulfonyl substituted bicyclic compound which acts as ROR inhibitor” (CHIA TAI TIANQING PHARMACEUTICAL GROUP CO., LTD, priority 2017, dated 2022).

A word on the EC50: it is the concentration at which the effect is half-maximal.

This experiment concerns the target T1, hRORγt (Homo sapiens, UniProt P51449).
T1 construct: expressed in transfected cells; host or cells: CHO-S (Chinese hamster ovary cells, Invitrogen R80007), transiently transfected with pM-hRORγt and pG5-luc
T1 sequence (P51449 1-497 isoform P51449-2): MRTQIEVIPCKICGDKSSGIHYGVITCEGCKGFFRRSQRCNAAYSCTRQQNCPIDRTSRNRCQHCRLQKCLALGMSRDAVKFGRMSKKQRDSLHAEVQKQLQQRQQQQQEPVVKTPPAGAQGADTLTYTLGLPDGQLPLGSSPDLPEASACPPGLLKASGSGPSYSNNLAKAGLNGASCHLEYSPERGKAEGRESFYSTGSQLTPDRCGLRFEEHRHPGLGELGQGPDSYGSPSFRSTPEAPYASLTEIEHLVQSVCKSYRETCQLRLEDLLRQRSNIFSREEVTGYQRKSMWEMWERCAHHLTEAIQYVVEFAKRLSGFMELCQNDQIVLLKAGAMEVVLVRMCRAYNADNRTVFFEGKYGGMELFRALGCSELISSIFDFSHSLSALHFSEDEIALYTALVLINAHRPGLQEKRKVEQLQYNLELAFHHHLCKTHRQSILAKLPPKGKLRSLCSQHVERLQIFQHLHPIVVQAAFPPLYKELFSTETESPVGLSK
The experiment in a line: Luciferase assay (reporter gene, recombinant plasmid hRORγt). It is filed as cell-based. The following applies: CHO-S cells transfected with pM-hRORγt and pG5-luc; overnight culture with compound; ONE-Glo luciferase readout; read-out: RORgt EC50. An excerpt:
This assay method used luciferase as a reporter gene to detect the expression of cells transfected with a gene recombinant plasmid at gene transcription level, wherein the recombinant plasmid was constructed by the promoter of a target gene and a luciferase gene. The experiment was primarily related to the transfection of the recombinant plasmid hRORγt (“RORgt”).
I. Reagents and Materials:
1. Cells: Chinese hamster ovary cells (CHO—S, Invitrogen, Cat #R80007), suspension-cultured in CD-CHO culture medium containing 8 mM L-glutamine and 1×HT.
a) Luciferase reporter gene plasmid pG5-luc: reporter plasmid (Promega).
b) Target gene plasmid pM-hRORγt: human RORgamma.
4. Transfection reagent: TransIT-CHO transfection kit (Minis Bio Co.) containing Trans-It reagent and Mojo reagent (Minis, MIR2170).
7. Luciferase kit: (Promega ONE-Glo, 100 ml, Catalog #E6120): containing luciferase substrate (Coenzyme A, ATP and luciferin) and a reaction buffer.
II. Specific Experimental Steps
1. Cell seeding: 18 to 24 h before transfection, a 125 mL shake flask was charged with CHO—S cells having a concentration of 0.5×10^6 cells/mL to 0.6×10^6 cells/mL, and CD-CHO culture medium (the culture medium only contained L-glutamine and an HT supplement) was added thereto to a final volume of 18 mL. The shake flask was placed on a shaker, and the cells were passaged overnight under a condition of 120 rpm, 37° C. and 8% CO2.
2. Cell transfection: At this time, the cell concentration of the above-mentioned solution should be 1.2×10^6 cells/mL to 1.5×10^6 cells/mL. CD-CHO culture medium (containing L-glutamine and an HT supplement) was used for dilution until the cell concentration reached 1×10^6 cells/mL.
B. Preparation of transfection reagent (TransIT-CHO: Mojo: DNA complex), which was formulated immediately before transfection.
1. Trans-IT reagent was warmed to room temperature in advance and shaken to be uniformly mixed before use.
2. Preparation for DNA transfection: the following reagents were mixed in a 1.5 mL sterile centrifuge tube:
27 μg of luciferase reporter gene plasmid pG5-luc: 27 μL, 1 mg/mL solution,
0.75 μg of the expression plasmid of the target gene (pM-hRORγt, 7.5 μL, 0.1 mg/mL solution).
3. The following reagents were charged into a 15 mL sterile centrifuge tube:
83 μL of TransIT-CHO reagent
the DNA complex prepared in step 2
4. The mixture was mixed well and placed at room temperature for 5 min.
5. 13.9 μL of Mojo reagent was charged into a sterile centrifuge tube, mixed slightly, and placed at room temperature for 20 min to form a transfection complex.
1. A 125 mL shake flask was charged with the transfection complex prepared in step B dropwise while being shaken slowly.
2. The cells were cultured for 4 h in a shaker under a condition of 37° C. and 8% carbon dioxide.
3. After 4 h, the cells were transferred to a 50 mL sterile centrifuge tube, centrifuged at 1200 rpm for 4 min, and the supernatant was aspirated.
4. The cells were re-suspended in 6 mL of a freezing medium (CD-CHO, L-glutamine, HT supplement, and 10% DMSO), and the cell density should be 3×10^6 cells/ml at this time.
5. The mixture was dispensed into 12 tubes with 0.5 mL in each tube. The tubes were placed in a refrigerator at −80° C. to be slowly frozen overnight, and then were transferred into liquid nitrogen for long-term storage.
D. Luciferase activity assay (96-well flat plate)
1. The cells were thawed at 37° C.
2. The cells (1.5×10^6 cells/0.5 mL) were diluted with 2 mL of freshly formulated culture medium (CD-CHO, L-glutamine and an HT supplement) to a volume of 2.5 mL, and then were transferred to a 15 mL sterile centrifuge tube.
3. Cell counting: If the cells were completely viable, a concentration of 6×10^5 cells/mL should be achieved. […] If necessary, the cells were diluted with culture medium.
4. Cell seeding: 100 μl cells (4×10^4 cells) were added to each well.
For orientation: Reporter assays use an easily measured gene product as a stand-in for the process of interest.
As for `CCc1ccc2c(c1)CCC(C)N2S(=O)(=O)c1ccc(OCC2CCOCC2)c(CO)c1` (centres unmarked), the EC50 is 23600 pM. With `C=C(C)c1ccc2c(c1)CCC(CC)N2S(=O)(=O)c1ccc(OCC2CCOCC2)c(CO)c1` (centres unmarked), the EC50 is 12000 pM. Take `CCc1ccc2c(c1)CCCN2S(=O)(=O)c1ccc(OCC2CCOCC2)c(CO)c1`: the EC50 is 858000 pM. As to `CCc1ccc2c(c1)CC[C@@H](C)N2S(=O)(=O)c1ccc(OCC2CCOCC2)c(CO)c1`, the EC50 worked out at 218000 pM.

Turning to `CCc1ccc2c(c1)CC[C@H](C)N2S(=O)(=O)c1ccc(OCC2CCOCC2)c(CO)c1`, the EC50 turned out to be 25000 pM. As for `CCc1ccc2c(c1)CC(C)CN2S(=O)(=O)c1ccc(OCC2CCOCC2)c(CO)c1` (centres unmarked), the EC50 was found to be 36000 pM. Then `CCc1ccc2c(c1)C(C)CN2S(=O)(=O)c1ccc(OCC2CCOCC2)c(CO)c1` (centres unmarked), with 1.4e+06 pM; and `CCc1ccc2c(c1)CCN2S(=O)(=O)c1ccc(OCC2CCOCC2)c(CO)c1`, with 2.63e+06 pM. Consider `CC1CCc2cc(C(F)(F)F)ccc2N1S(=O)(=O)c1ccc(OCC2CCOCC2)c(CO)c1` (centres unmarked), for which the EC50 came out at 15000 pM. As to `CC(C)c1ccc2c(c1)CCC(C)N2S(=O)(=O)c1ccc(OCC2CCOCC2)c(CO)c1` (centres unmarked), the EC50 was 14900 pM. On to `CCc1ccc2c(c1)CCC(CC)N2S(=O)(=O)c1ccc(OCC2CCOCC2)c(S(C)(=O)=O)c1` (centres unmarked), for which the EC50 amounted to 1.86e+06 pM.

Consider `CCc1ccc2c(c1)CCC(CC)N2S(=O)(=O)c1ccc(OCC2CCOCC2)c(CO)n1` (centres unmarked), for which the EC50 was determined as 212000 pM. As for `CCc1ccc2c(c1)CCC(CC)N2S(=O)(=O)c1ccc(OCC2CCOCC2)c(S(N)(=O)=O)c1` (centres unmarked), the EC50 came out at 576000 pM. In the case of `C=Cc1ccc2c(c1)CCC(CC)N2S(=O)(=O)c1ccc(OCC2CCOCC2)c(CO)c1` (centres unmarked), the EC50 worked out at 35500 pM. For the compound `CCc1ccc2c(c1F)CCC(CC)N2S(=O)(=O)c1ccc(OCC2CCOCC2)c(CO)c1` (centres unmarked), the EC50 turned out to be 13600 pM.

Consider `[2H]C([2H])(O)c1cc(S(=O)(=O)N2c3ccc(C(C)C)cc3CCC2CC)ccc1OCC1CCOCC1` (centres unmarked), for which the EC50 turned out to be 11500 pM. Consider `CCC1CCc2cc(C(C)(F)F)ccc2N1S(=O)(=O)c1ccc(OCC2CCOCC2)c(CO)c1` (centres unmarked), for which the EC50 came out at 15600 pM. Then `CCc1ccc2c(c1)CCC(C(F)(F)F)N2S(=O)(=O)c1ccc(OCC2CCOCC2)c(CO)c1` (centres unmarked), with 23000 pM; and `CCc1ccc2c(c1)C(C)CCN2S(=O)(=O)c1ccc(OCC2CCOCC2)c(CO)c1` (centres unmarked), with 655000 pM. Take `CCCc1ccc2c(c1)CCC(C)N2S(=O)(=O)c1ccc(OCC2CCOCC2)c(CO)c1` (centres unmarked): the concentration giving a half-maximal response (EC50) is 17900 pM. Take `CCc1ccc2c(c1)CCC(CC)N2S(=O)(=O)c1ccc(OCC2CCOCC2)c(CO)c1` (centres unmarked): the half-maximal effective concentration (EC50) worked out at 11000 pM.

Consider `CC1CCc2cc(C#N)ccc2N1S(=O)(=O)c1ccc(OCC2CCOCC2)c(CO)c1` (centres unmarked), for which the EC50 worked out at 689000 pM. As for `CCc1cc(F)c2c(c1)CC[C@H](C)N2S(=O)(=O)c1ccc(OCC2CCOCC2)c(CO)c1`, the EC50 amounted to 151000 pM. Then `CCC1CCc2cc(CC(F)(F)F)ccc2N1S(=O)(=O)c1ccc(OCC2CCOCC2)c(CO)c1` (centres unmarked), with 23000 pM; and `CC1CCc2cc(C3CC3)ccc2N1S(=O)(=O)c1ccc(OCC2CCOCC2)c(CO)c1` (centres unmarked), with 20700 pM; and `CCc1ccc2c(c1)CC(CC)CN2S(=O)(=O)c1ccc(OCC2CCOCC2)c(CO)c1` (centres unmarked), with 31600 pM. Then `CCc1ccc2c(c1)CCC(C)(C)N2S(=O)(=O)c1ccc(OCC2CCOCC2)c(CO)c1`, with 310000 pM. For the compound `CCc1cc2c(cc1F)N(S(=O)(=O)c1ccc(OCC3CCOCC3)c(CO)c1)[C@@H](C)CC2`, the concentration giving a half-maximal response (EC50) amounted to 96500 pM. On to `CC[C@@H]1CCc2cc(C(C)C)ccc2N1S(=O)(=O)c1ccc(OCC2CCOCC2)c(CO)c1`, for which the EC50 is 48000 pM. In the case of `CCc1ccc2c(c1)CC[C@@H](CC)N2S(=O)(=O)c1ccc(OCC2CCOCC2)c(CO)c1`, the EC50 was found to be 4200 pM. Turning to `CCc1ccc2c(c1)CCC(CC)N2S(=O)(=O)c1ccc(C(O)CC2CCOCC2)c(CO)c1` (centres unmarked), the EC50 amounted to 201000 pM. The same measure for `CCc1ccc2c(c1)CCC(C(C)C)N2S(=O)(=O)c1ccc(OCC2CCOCC2)c(CO)c1` (centres unmarked): 12400 pM; for `CCC1CCc2cc(C(C)(C)O)ccc2N1S(=O)(=O)c1ccc(OCC2CCOCC2)c(CO)c1` (centres unmarked): 1.4e+06 pM; for `CCc1ccc2c(c1)CCC(CC)N2S(=O)(=O)c1ccc(C(CO)N2CCOCC2)c(CO)c1` (centres unmarked): 3.12e+06 pM. Regarding `CCc1ccc2c(c1)CCC(CC)N2S(=O)(=O)c1ccc(C(O)CN2CCOCC2)c(CO)c1` (centres unmarked), the EC50 amounted to 595000 pM.

Regarding `CCc1ccc2c(c1)CC[C@H](CC)N2S(=O)(=O)c1ccc(OCC2CCOCC2)c(CO)c1`, the EC50 stood at 34900 pM. On to `CC[C@H]1CCc2cc(C(C)C)ccc2N1S(=O)(=O)c1ccc(OCC2CCOCC2)c(CO)c1`, for which the EC50 was found to be 6800 pM.

Regarding `C[C@H]1CCc2ccc(C(F)(F)F)cc2N1S(=O)(=O)c1ccc(OCC2CCOCC2)c(CO)c1`, the EC50 is 330000 pM. Then `CC[C@@H]1CCc2cc(C3CCC3)ccc2N1S(=O)(=O)c1ccc(OCC2CCOCC2)c(CO)c1`, with 5200 pM; and `CCC1CCc2cc(C(F)(F)F)ccc2N1S(=O)(=O)c1ccc(OCC2CCOCC2)c(CO)c1` (centres unmarked), with 21100 pM; and `CCC1CCc2cc(C(C)(C)C)ccc2N1S(=O)(=O)c1ccc(OCC2CCOCC2)c(CO)c1` (centres unmarked), with 70200 pM. Take `CC[C@@H]1CCc2cc(C(F)(F)F)ccc2N1S(=O)(=O)c1ccc(OCC2CCOCC2)c(CO)c1`: the EC50 turned out to be 5400 pM. Then `CCc1ccc2c(c1)CCC(C1CC1)N2S(=O)(=O)c1ccc(OCC2CCOCC2)c(CO)c1` (centres unmarked), with 7000 pM; and `CCC1CCc2cc(C3CCC3)ccc2N1S(=O)(=O)c1ccc(OCC2CCOCC2)c(CO)c1` (centres unmarked), with 5500 pM; and `CC[C@@H]1CCc2cc(C(C)(F)F)ccc2N1S(=O)(=O)c1ccc(OCC2CCOCC2)c(CO)c1`, with 10000 pM. For the compound `CCc1ccc2c(c1)CCC(CC(C)C)N2S(=O)(=O)c1ccc(OCC2CCOCC2)c(CO)c1` (centres unmarked), the EC50 worked out at 21000 pM.

In the case of `CCc1ccc2c(c1)CCC(CC)N2S(=O)(=O)c1ccc(OCC2CCS(=O)(=O)CC2)c(CO)c1` (centres unmarked), the EC50 worked out at 146000 pM. Turning to `C[C@H]1CCc2cc(C(C)(F)F)ccc2N1S(=O)(=O)c1ccc(OCC2CCOCC2)c(CO)c1`, the EC50 worked out at 181000 pM. Turning to `CCc1ccc2c(c1)C[C@@H](O)[C@H](C)N2S(=O)(=O)c1ccc(OCC2CCOCC2)c(CO)c1`, the EC50 was found to be 803000 pM.

Regarding `CCc1ccc2c(c1)CC[C@@H](C1CC1)N2S(=O)(=O)c1ccc(OCC2CCOCC2)c(CO)c1`, the EC50 was found to be 3200 pM.

For `Cc1cc(C)c2c(c1)CCC(C1CC1)N2S(=O)(=O)c1ccc(OCC2CCOCC2)c(CO)c1` (centres unmarked), the EC50 is 18000 pM. Turning to `CCc1ccc2c(c1)CCC(C1CCC1)N2S(=O)(=O)c1ccc(OCC2CCOCC2)c(CO)c1` (centres unmarked), the EC50 came out at 8100 pM.

`CC(C)c1ccc2c(c1)CCC(C1CC1)N2S(=O)(=O)c1ccc(OCC2CCOCC2)c(CO)c1` (centres unmarked): the EC50 turned out to be 6600 pM.
